From patent publication US20170105910A1, “UV FILTER CAPSULE” (BASF SE, priority 2007, published 2017)

Assay: Solubility of Ethylhexyl Triazone in solvents (visual assessment)
Assay type: physicochemical
Method: The solubility of Ethylhexyl Triazone in the systems indicated can be determined as follows:
The test substance is initially incorporated into the solvent (for example cosmetic emollient, as indicated in the table) at room temperature (about 20° C.-25° C.) with stirring in small beakers on a heatable magnetic stirrer (the stirring time here should not exceed about 30 min.). The assessment is carried out visually, i.e. it is checked whether a completely clear solution and without evident particles is present. The amounts, conditions and stirring times employed should be noted. If the substance is readily soluble, the concentration is increased by subsequent incorporation of further substance, for example by addition in 0.1 g steps with stirring. […] The assessment is carried out visually, if necessary with the aid of a microscope with lambda plate.

Compound: CCCCC(CC)COC(=O)c1ccc(Nc2nc(Nc3ccc(C(=O)OCC(CC)CCCC)cc3)nc(Nc3ccc(C(=O)OCC(CC)CCCC)cc3)n2)cc1 (centres unmarked) [Ethylhexyl Triazone, 2,4,6-tris[anilino(p-carbo-2′-ethyl-1′-hexyloxy)]-1,3,5-triazine]
- solubility at room temperature (in Spectrasolv DMDA, room temperature (20° C. to 25° C.)): about 55 % by weight
- Ethylhexyl Triazone solubility at 25° C. (solvent C12-13 Alkyl Lactate): 22%
- Ethylhexyl Triazone solubility at 25° C. (solvent Di-C12-13 Alkyl Tartrate): 35%
- Ethylhexyl Triazone solubility at 25° C. (solvent Dioctyl Malate): 13%
- Ethylhexyl Triazone solubility at 25° C. (solvent Spectrasolv DMDA): about 55%
